Measurements as given in ChEMBL document CHEMBL1147362, “Cytotoxicity of Hymenocallis expansa alkaloids” (1993).
In brackets after ≈: the same amount, converted by molar mass.

How the values were obtained:
Type in all cases: functional
KB = assay: Cytotoxicity against human KB cells after 3 days by sulforhodamine B assay; details: 72 h, read-out: ED50 (the source's name)
P388 = assay: Cytotoxicity against mouse P388 cells after 3 days by sulforhodamine B assay; details: P388, 72 h, read-out: ED50 (the source's name)
LNCaP = assay: Cytotoxicity against human LNCAP cells after 3 days by sulforhodamine B assay; details: 72 h, read-out: ED50 (the source's name)
Lu1 = assay: Cytotoxicity against human Lu1 cells after 3 days by sulforhodamine B assay; details: Lu1, 72 h, read-out: ED50 (the source's name)
HT = assay: Cytotoxicity against human HT cells after 3 days by sulforhodamine B assay; details: 72 h, read-out: ED50 (the source's name)
Col2 = assay: Cytotoxicity against human Col2 cells after 3 days by sulforhodamine B assay; details: Col2, 72 h, read-out: ED50 (the source's name)
[1] = Cytotoxicity against human KBV1 cells after 3 days by sulforhodamine B assay; details: KB-V1, 72 h, read-out: ED50 (the source's name)
A-431 = assay: Cytotoxicity against human A431 cells after 3 days by sulforhodamine B assay; details: A-431, 72 h, read-out: ED50 (the source's name)
SK-MEL-2 = assay: Cytotoxicity against human SK-MEL-2 cells after 3 days by sulforhodamine B assay; details: SK-MEL-2, 72 h, read-out: ED50 (the source's name)
[2] = Cytotoxicity against human BC1 cells after 3 days by sulforhodamine B assay; details: BC1, 72 h, read-out: ED50 (the source's name)
ZR-75-1 = assay: Cytotoxicity against human ZR-75-1 cells after 3 days by sulforhodamine B assay; details: ZR-75-1, 72 h, read-out: ED50 (the source's name)

Row | SMILES | EC50 (KB) | EC50 (P388) | EC50 (LNCaP) | EC50 (Lu1) | EC50 (HT) | EC50 (Col2) | EC50 [1] | EC50 (A-431) | EC50 (SK-MEL-2) | EC50 [2] | EC50 (ZR-75-1)
1 | CN1CCC2=C[C@H](O)[C@H]3OC(=O)c4cc5c(cc4[C@H]3[C@@H]21)OCO5 | > 20 µg/mL | 4 µg/mL (≈ 12.7 µM) | 1.8 µg/mL (≈ 5.71 µM) | 5.2 µg/mL (≈ 16.5 µM) | 4.7 µg/mL (≈ 14.9 µM) | 7.8 µg/mL (≈ 24.7 µM) | > 20 µg/mL | 6.3 µg/mL (≈ 20 µM) | > 20 µg/mL | > 20 µg/mL | 7.3 µg/mL (≈ 23.2 µM)
2 | CO[C@@H]1C=C[C@@]23c4cc5c(cc4[C@H](O)N(C[C@@H]2O)[C@H]3C1)OCO5 | 3.6 µg/mL (≈ 11.3 µM) | 0.4 µg/mL (≈ 1.26 µM) | 0.7 µg/mL (≈ 2.21 µM) | 2.1 µg/mL (≈ 6.62 µM) | 1.6 µg/mL (≈ 5.04 µM) | 6 µg/mL (≈ 18.9 µM) | 8.4 µg/mL (≈ 26.5 µM) | 3 µg/mL (≈ 9.45 µM) | 1.9 µg/mL (≈ 5.99 µM) | > 20 µg/mL | 2.6 µg/mL (≈ 8.19 µM)
3 | CO[C@@H]1C=C[C@@]23c4cc5c(cc4CO[C@]2(O)CN(C)[C@H]3C1)OCO5 [TAZETTINE] | 7.3 µg/mL (≈ 22 µM) | 1 µg/mL (≈ 3.02 µM) | 5.9 µg/mL (≈ 17.8 µM) | 11.1 µg/mL (≈ 33.5 µM) | 11.8 µg/mL (≈ 35.6 µM) | 5 µg/mL (≈ 15.1 µM) | > 20 µg/mL | 11.1 µg/mL (≈ 33.5 µM) | 12.9 µg/mL (≈ 38.9 µM) | > 20 µg/mL | 6.9 µg/mL (≈ 20.8 µM)
